These results are taken from patent US20250327074A1 (SHAOXING INSTITUTE, ZHEJIANG UNIVERSITY, priority 2024, published 2025).

The test system of the first assay is TCG codon, mammalian cells. Nature of the assay: TCG codon recoding efficiency of all amino acids (Table 1). It is filed as cell-based. The note with it: TCG codon recoding of the unnatural amino acid with the aaRS and mutation of the same table line; class symbols. The source says:
Specific details are shown in Table 1 below, where “wt” represents the wild-type aminoacyl-tRNA synthetase, “mutation sites” indicate the positions and types of mutations related to specific unnatural amino acid binding on the wild-type aminoacyl-tRNA synthetase, and “unnatural amino acid” represents the unnatural amino acid corresponding to the mutated aminoacyl-tRNA synthetase. In the unnatural amino acid encoding efficiency, “+” indicates a recoding efficiency greater than 40%, “++” greater than 60%, and “+++” greater than 80%.
Accordingly, this application compiles all amino acids reported in the literature that are recognized by orthogonal aminoacyl-tRNA synthetases in mammalian systems and evaluates their recoding efficiency using the TCG codon as an example.
`N[C@@H](CCC(=O)OCc1cc2c(cc1[N+](=O)[O-])OCO2)C(=O)O` [compound 264]: the “Recoding rate (%)” value is “++ (“++” greater than 60%)”.
With `N[C@@H](Cc1ccc(OCC2CCCC2)cc1)C(=O)O` [compound 238], the “Recoding rate (%)” value was “++ (“++” greater than 60%)”.
Regarding `CCCCCCCCSC[C@H](N)C(=O)O` [compound 384], the “Recoding rate (%)” value is reported as “++ (“++” greater than 60%)”.
On to `C=CC[S+]([O-])C[C@@H](N)C(=O)O` (stereo partly drawn) [compound 405], for which the “Recoding rate (%)” value was “+++ (“+++” greater than 80%)”.
With `CC=CCOC[C@H](N)C(=O)O` [compound 408], the “Recoding rate (%)” value is “+++ (“+++” greater than 80%)”.
Regarding `[N-]=[N+]=NCCOc1ccc(C[C@H](N)C(=O)O)cc1` [compound 348], the “Recoding rate (%)” value is “++ (“++” greater than 60%)”.
On the same count and under the same terms, next, `N[C@@H](CCc1cc(=O)oc2cc(O)ccc12)C(=O)O` [compound 347]: “++ (“++” greater than 60%)”.
Regarding `N[C@@H](Cc1ccc2ncccc2c1)C(=O)O` [compound 230], the “Recoding rate (%)” value is given as “+ (“+” indicates a recoding efficiency greater than 40%)”.
With `CC(OC(=O)NCSCC(N)C(=O)O)c1cc2c(cc1[N+](=O)[O-])OCO2` (mixture of isomers) [compound 270], the “Recoding rate (%)” value is on record as “+ (“+” indicates a recoding efficiency greater than 40%)”.
Regarding `C#CCC(=O)Nc1ccc(C[C@H](N)C(=O)O)cc1` [compound 352], the “Recoding rate (%)” value was “+++ (“+++” greater than 80%)”.
Turning to `C#CCCCSC[C@H](N)C(=O)O` [compound 385], the “Recoding rate (%)” value is listed as “++ (“++” greater than 60%)”.
`N[C@@H](Cc1ccc(C(=O)c2ccc(Br)cc2)cc1)C(=O)O` [compound 344]: the “Recoding rate (%)” value is recorded as “++ (“++” greater than 60%)”.
On to `C=CCCOc1ccc(C[C@H](N)C(=O)O)cc1` [compound 242], for which the “Recoding rate (%)” value was “++ (“++” greater than 60%)”.
In the case of `CC(=O)c1ccc2cc(NC[C@H](N)C(=O)O)ccc2c1` [compound 391], the “Recoding rate (%)” value is reported as “++ (“++” greater than 60%)”.
Same read-out and setting: the result for `C#CCSC[C@H](N)C(=O)O` [compound 273] reads “+ (“+” indicates a recoding efficiency greater than 40%)”; that for `N[C@@H](CSCc1ccccc1[N+](=O)[O-])C(=O)O` [compound 401], “+++ (“+++” greater than 80%)”; that for `N[C@@H](Cc1ccc(C=CCCc2ccc3ccccc3c2)cc1)C(=O)O` [compound 321], “++ (“++” greater than 60%)”.
For `[N-]=[N+]=NCCCCCSC[C@H](N)C(=O)O` [compound 389], the “Recoding rate (%)” value is listed as “++ (“++” greater than 60%)”.
As for `N[C@@H](Cc1ccc2ccccc2c1)C(=O)O` [compound 249], the “Recoding rate (%)” value was “+ (“+” indicates a recoding efficiency greater than 40%)”.
Consider `N[C@@H](Cc1ccc(C=CCCc2ccc3c(c2)CCC3)cc1)C(=O)O` [compound 322], for which the “Recoding rate (%)” value was “++ (“++” greater than 60%)”.
Take `N[C@@H](CC(=O)SCCNC(=O)OC1CCCC1)C(=O)O` [compound 267]: the “Recoding rate (%)” value was “++ (“++” greater than 60%)”.
In the case of `Nc1ccc2[nH]cc(C[C@H](N)C(=O)O)c2c1` [compound 417], the “Recoding rate (%)” value is recorded as “+ (“+” indicates a recoding efficiency greater than 40%)”.
With `N[C@@H](Cc1ccc(NC(=O)CCl)cc1)C(=O)O` [compound 356], the “Recoding rate (%)” value is “+++ (“+++” greater than 80%)”.
For `CCCCSC[C@H](N)C(=O)O` [compound 380], the “Recoding rate (%)” value is given as “++ (“++” greater than 60%)”.
`CCCCC=Cc1ccc(C[C@H](N)C(=O)O)cc1` [compound 314]: the “Recoding rate (%)” value is reported as “++ (“++” greater than 60%)”.
Take `N[C@@H](CCCCS)C(=O)O` [compound 395]: the “Recoding rate (%)” value was “++ (“++” greater than 60%)”.

Still in this assay, the particulars now being: TCG codon recoding of the unnatural amino acid with the aaRS and mutation of the same table line; numeric values.
On to `N[C@@H](Cc1cccc([N+](=O)[O-])c1)C(=O)O` [compound 237], for which the “Recoding rate (%)” value is 85%.
In the case of `N[C@@H](Cc1csc2ccccc12)C(=O)O` [compound 252], the “Recoding rate (%)” value worked out at 89%.
As for `C#CCCCCSC[C@H](N)C(=O)O` [compound 386], the “Recoding rate (%)” value turned out to be 77%.
Regarding `CN(C)c1cccc2c(S(=O)(=O)NC[C@H](N)C(=O)O)cccc12` [compound 390], the “Recoding rate (%)” value is given as 73%.
As to `N[C@@H](Cc1ccc(Br)cc1)C(=O)O` [compound 366], the “Recoding rate (%)” value stood at 63%.
As for `N[C@@H](Cc1ccc(OS(=O)(=O)F)cc1)C(=O)O` [compound 373], the “Recoding rate (%)” value turned out to be 68%.
As for `COc1ccc([N+](=O)[O-])c2c1CCN2C(=O)CC[C@H](N)C(=O)O` [compound 374], the “Recoding rate (%)” value came to 43%.
On the same count and under the same terms, the result for `N[C@@H](Cc1ccc(I)cc1)C(=O)O` [compound 331] reads 43%; that for `N[C@@H](Cc1ccc2c(c1)C(=O)C1C=CC=CC1N2)C(=O)O` (stereo partly drawn) [compound 277], 63%.
With `CCCCCCSC[C@H](N)C(=O)O` [compound 382], the “Recoding rate (%)” value is 87%.
On to `COc1ccc(C[C@H](N)C(=O)O)cc1` [compound 365], for which the “Recoding rate (%)” value amounted to 89%.
Consider `N[C@@H](Cc1ccccc1[N+](=O)[O-])C(=O)O` [compound 232], for which the “Recoding rate (%)” value was determined as 72%.
In the case of `[N-]=[N+]=Nc1ccc(C[C@H](N)C(=O)O)cc1` [compound 360], the “Recoding rate (%)” value is reported as 79%.
Still for that read-out and setting: next, `COc1ccc(C[C@H](N)C(=O)O)cc1` [compound 369]: 84%; `N[C@@H](Cc1ccc(I)cc1)C(=O)O` [compound 297]: 43%.
On to `N[C@@H](Cc1ccc(Br)cc1)C(=O)O` [compound 328], for which the “Recoding rate (%)” value is reported as 51%.
With `CC(=O)c1ccc(C[C@H](N)C(=O)O)cc1` [compound 359], the “Recoding rate (%)” value worked out at 78%.
For `CCOc1cc(CSC[C@H](N)C(=O)O)c([N+](=O)[O-])cc1OCC` [compound 403], the “Recoding rate (%)” value stood at 84%.
Still for that read-out and setting: next, `CCCCCC[C@H](N)C(=O)O` [compound 396]: 88%; `N[C@@H](Cc1cccc(C(F)(F)F)c1)C(=O)O` [compound 234]: 81%.
With `N#Cc1cccc(C[C@H](N)C(=O)O)c1` [compound 235], the “Recoding rate (%)” value stood at 74%.
For `N[C@@H](Cc1ccco1)C(=O)O` [compound 260], the “Recoding rate (%)” value came out at 43%.
`N[C@@H](Cc1c[nH]c2ccc(O)cc12)C(=O)O` [compound 411]: the “Recoding rate (%)” value is 75%.
For `N[C@@H](Cc1cncs1)C(=O)O` [compound 257], the “Recoding rate (%)” value was 91%.
For `N[C@@H](Cc1ccc(OCc2ccccc2)cc1)C(=O)O` [compound 240], the “Recoding rate (%)” value is 46%.
Consider `Cc1cccc2c(C[C@H](N)C(=O)O)c[nH]c12` [compound 300], for which the “Recoding rate (%)” value was found to be 69%.
In the case of `N[C@@H](Cc1ccc2ccccc2c1)C(=O)O` [compound 307], the “Recoding rate (%)” value stood at 66%.
The same measure, in the same setting: next, `C=Cn1cc(C[C@H](N)C(=O)O)c2ccccc21` [compound 325]: 59%; `N[C@@H](Cc1ccc(Br)s1)C(=O)O` [compound 259]: 87%.
Same read-out and setting: the result for `CC(=O)c1ccc(C[C@H](N)C(=O)O)cc1` [compound 305] reads 92%; that for `CC(C)(C)Oc1ccc(C[C@H](N)C(=O)O)cc1` [compound 244], 72%.
